Results reported in patent EP0585371B1, “AROMATIC OLIGOMERIC COMPOUNDS USEFUL AS MIMICS OF BIOACTIVE MACROMOLECULES” (RHONE-POULENC RORER INTERNATIONAL (HOLDINGS) INC., priority 1991, dated 1992).
“And” between values parts separate entries of the source, which are not always exact repeats. Identical values can stand only once. Like-named read-outs stand apart in the source and are kept apart here.

Assays:
[1] = molecular target: T1, Human neutrophil elastase (Homo sapiens, UniProt P08246); test: Human Granulocyte Elastase Inhibition Assay; type: biochemical; settings: substrate S-2484, pH 8.3
T1 construct: purchased ICN Biochemical
T1 sequence (P08246 30-267): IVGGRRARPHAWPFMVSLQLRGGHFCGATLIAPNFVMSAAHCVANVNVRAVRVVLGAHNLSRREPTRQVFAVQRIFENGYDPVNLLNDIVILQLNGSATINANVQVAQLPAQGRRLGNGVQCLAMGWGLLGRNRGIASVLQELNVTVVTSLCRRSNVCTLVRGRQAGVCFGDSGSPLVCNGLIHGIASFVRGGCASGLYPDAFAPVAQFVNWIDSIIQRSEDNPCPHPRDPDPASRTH
Method: The Human Granulocyte Elastase Inhibition assay is a standard test procedure and is essentially that of Kramps, et al., "L-Pyroglutamyl-L-prolyl-L-valine-p-nitroanilide, a highly specific substrate for granulocyte elastase", Scand. J. clin. Lab. Invest. 43, 427-432 (1983).
A stock solution of 8.0 mM L-pyroglutamyl-L-prolyl-L-valine-p-nitroanilide (S-2484, obtained from Kabi) in dimethylsulfoxide is diluted to 2.0 mM in 0.03 M Tris buffer, pH 8.3, to give the working substrate solution. Human neutrophil elastase (obtained from ICN Biochemical) is diluted in the same buffer to 1 unit/ml to give the working enzyme solution.
A control assay is run in which a solution of 10 µl of buffer and 10µl of working enzyme solution is incubated at room temperature for 1 minute and 330 µl of buffer and 50 µl of working substrate solution is then added. The increase in absorbance (ΔOD/min) at 405 nm is measured.
In the experimental assay 10µl of a solution containing a compound of the present invention (in concentrations ranging from 1 mg/ml to 0.1 µg/ml), or other inhibitor to be tested, in buffer is substituted for the 10 µl of buffer with which the enzyme is incubated in the control assay and the procedure followed as for the control assay above. The ΔOD/min is measured and the result expressed as percentage inhibition for the given concentration of inhibitor as compared with the ΔOD/min for the control. Percent inhibition versus concentration of compound of the present invention or other inhibitor is plotted and the data extrapolated to give the concentration required for 50% inhibition of the enzyme (IC50).

normal pooled plasma = test: Anticoagulation activity, Activated Partial Thromboplastin Time (APTT) test; settings: concentration required to double clotting time
Method: The following test measures anticoagulant activity of the oligomers of the present invention and utilizes the Activated Partial Thromboplastin Time (APTT) test, with the following procedures.
To an assay cuvette is added 100 µl of normal pooled plasma (George King Biomedical Inc., Kansas) and […] of a solution containing the test compound in aqueous 50 mM Tris hydrochloride at pH 7.5 (0.2 mg of sample in one ml buffer). The sample is placed in a MLA coagulation timer which automatically maintains the sample at 37°C for 2.5 minutes, 100 µl of actin activated cephaloplastin reagent is injected, kept 5 minutes, 100 µl of 35 mM CaCI is injected, and clot formation is determined photometrically and the clotting time recorded. Each example is examined at a variety of concentrations, generally from about .025 mg/ml to about 1 mg/ml, and the clotting times are graphed as a function of concentration. From the graphic results, the concentration required to double clotting time (ICDCT) is calculated by linear interpolation.

vWF Binding to Gp1b = molecular target: T2, vWF Binding to Gp1b (Homo sapiens, UniProt P04275+P07359); test: Inhibition of ristocetin-induced binding of 125I-vWF to formalin-fixed platelets; settings: at 100 µg/ml; ristocetin 1.0 mg/ml
T2 construct: multimeric vWF (isolated from human plasma cryoprecipitate); Formalin-fixed platelets, prepared according to the method of MacFarlane; from tissue; host or cells: vWF from human plasma cryoprecipitate; GPIb on formalin-fixed platelets
T2 sequence (P04275 764-2813 limits assumed): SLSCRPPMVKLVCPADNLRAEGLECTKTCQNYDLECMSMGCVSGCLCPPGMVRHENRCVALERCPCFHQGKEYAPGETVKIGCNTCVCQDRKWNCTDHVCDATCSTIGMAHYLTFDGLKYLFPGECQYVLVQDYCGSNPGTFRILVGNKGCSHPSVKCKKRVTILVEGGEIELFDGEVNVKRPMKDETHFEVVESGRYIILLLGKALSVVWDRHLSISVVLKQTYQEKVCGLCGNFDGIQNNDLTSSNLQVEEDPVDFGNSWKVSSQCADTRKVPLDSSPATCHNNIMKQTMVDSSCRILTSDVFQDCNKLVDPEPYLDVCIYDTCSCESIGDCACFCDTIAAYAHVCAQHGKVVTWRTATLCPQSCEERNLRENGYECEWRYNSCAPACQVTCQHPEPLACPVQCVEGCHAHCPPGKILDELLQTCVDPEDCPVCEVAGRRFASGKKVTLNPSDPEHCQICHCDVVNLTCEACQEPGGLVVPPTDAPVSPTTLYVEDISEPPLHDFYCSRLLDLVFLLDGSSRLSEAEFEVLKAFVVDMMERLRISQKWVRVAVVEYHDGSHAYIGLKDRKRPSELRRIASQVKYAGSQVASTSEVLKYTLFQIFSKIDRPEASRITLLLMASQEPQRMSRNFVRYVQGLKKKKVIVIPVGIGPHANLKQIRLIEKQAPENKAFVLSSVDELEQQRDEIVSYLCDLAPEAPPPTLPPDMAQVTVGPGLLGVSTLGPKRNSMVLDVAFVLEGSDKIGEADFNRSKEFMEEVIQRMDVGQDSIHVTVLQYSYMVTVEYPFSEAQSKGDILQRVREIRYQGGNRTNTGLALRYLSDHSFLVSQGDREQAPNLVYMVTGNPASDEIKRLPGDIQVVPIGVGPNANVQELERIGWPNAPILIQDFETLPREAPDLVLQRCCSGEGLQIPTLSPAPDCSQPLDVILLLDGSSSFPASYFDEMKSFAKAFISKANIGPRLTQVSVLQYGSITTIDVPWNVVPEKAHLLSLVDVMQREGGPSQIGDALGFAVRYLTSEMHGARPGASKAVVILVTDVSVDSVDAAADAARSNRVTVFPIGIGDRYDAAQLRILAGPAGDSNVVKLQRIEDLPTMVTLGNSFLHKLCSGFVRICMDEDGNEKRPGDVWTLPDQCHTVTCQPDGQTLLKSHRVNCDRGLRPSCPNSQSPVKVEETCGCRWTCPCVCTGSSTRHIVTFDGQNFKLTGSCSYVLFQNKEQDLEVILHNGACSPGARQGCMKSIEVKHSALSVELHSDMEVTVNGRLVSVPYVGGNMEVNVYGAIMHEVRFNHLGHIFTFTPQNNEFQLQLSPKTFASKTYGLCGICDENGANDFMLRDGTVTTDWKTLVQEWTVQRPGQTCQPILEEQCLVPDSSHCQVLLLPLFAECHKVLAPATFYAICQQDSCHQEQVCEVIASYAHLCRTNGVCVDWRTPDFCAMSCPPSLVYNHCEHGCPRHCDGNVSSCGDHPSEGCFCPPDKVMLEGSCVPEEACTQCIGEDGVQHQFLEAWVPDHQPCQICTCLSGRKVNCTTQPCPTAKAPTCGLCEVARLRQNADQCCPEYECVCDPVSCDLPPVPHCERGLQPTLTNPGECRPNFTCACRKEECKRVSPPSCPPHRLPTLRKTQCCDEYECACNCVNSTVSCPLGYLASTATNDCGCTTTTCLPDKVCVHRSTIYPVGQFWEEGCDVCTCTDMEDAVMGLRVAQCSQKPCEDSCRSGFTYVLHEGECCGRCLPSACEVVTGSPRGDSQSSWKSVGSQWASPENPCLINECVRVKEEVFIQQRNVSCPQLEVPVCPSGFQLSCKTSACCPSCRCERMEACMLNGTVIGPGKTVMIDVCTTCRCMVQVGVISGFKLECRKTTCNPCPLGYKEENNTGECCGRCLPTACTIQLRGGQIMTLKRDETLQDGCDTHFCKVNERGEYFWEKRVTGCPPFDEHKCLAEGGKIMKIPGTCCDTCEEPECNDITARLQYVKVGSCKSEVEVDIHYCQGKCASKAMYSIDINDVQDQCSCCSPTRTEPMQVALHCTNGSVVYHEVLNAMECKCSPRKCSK
T2 sequence (P07359 17-652): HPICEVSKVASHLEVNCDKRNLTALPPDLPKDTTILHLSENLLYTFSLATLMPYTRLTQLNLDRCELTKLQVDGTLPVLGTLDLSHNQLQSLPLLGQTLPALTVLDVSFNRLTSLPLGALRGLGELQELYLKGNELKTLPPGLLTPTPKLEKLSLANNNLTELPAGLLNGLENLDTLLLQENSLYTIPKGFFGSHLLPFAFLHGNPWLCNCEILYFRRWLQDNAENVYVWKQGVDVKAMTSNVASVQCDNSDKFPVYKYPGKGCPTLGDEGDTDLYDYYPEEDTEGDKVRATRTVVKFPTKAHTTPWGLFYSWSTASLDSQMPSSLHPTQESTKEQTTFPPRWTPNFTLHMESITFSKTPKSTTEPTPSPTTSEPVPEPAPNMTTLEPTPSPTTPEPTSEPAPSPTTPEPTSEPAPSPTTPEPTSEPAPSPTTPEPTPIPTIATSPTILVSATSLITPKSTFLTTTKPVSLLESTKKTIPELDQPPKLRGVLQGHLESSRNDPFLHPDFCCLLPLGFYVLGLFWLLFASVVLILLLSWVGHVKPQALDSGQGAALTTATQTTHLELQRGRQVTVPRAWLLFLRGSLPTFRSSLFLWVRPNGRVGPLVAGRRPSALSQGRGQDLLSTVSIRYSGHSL
Method: The binding of vWf (vonWillebrand Factor) to glycoprotein Ib is measured in one of two experimental systems, in the presence of either ristocetin or botrocetin as modulators of binding. The ristocetin modulated binding is described herein.
Formalin-fixed platelets, prepared according to the method of MacFarlane, D. et al., Thromb. Diath. Haemorrh. 34, 306-308 (1975), were preincubated at room temperature for 15 minutes with specified dilutions of oligomers according to the present invention. Ristocetin, (Sigma, St. Louis, MO) diluted to a final concentration of 1.0 mg/ml, and ^125I-labelled multimeric vWF (isolated from human plasma cryoprecipitate according to the method of Fulcher, C.A. et al. Proc. Natl. Acad. Sci. USA, 79, 1648-1652 (1982), and labelled according to the method of Fraker, P.J. et al. Biochem. Biophys. Res. Commun., 80, 849-857 (1978)) were then added to the incubation mixture, and the amount of ^125I- vWF bound to the platelets was determined. ^125I-vWF binding to the platelets was referenced against 100% binding which was defined as the amount of ^125I- vWF bound in the absence of added oligomer compound. The method for measuring vWF binding is reported in detail in Ruggeri et al., J. Clin. Invest., 72, 1-12, (1983), herein incorporated by reference.

[2] = system: Vascular smooth muscle cells (VSMC); test: Smooth Muscle Cell DNA Synthesis Assay (3H-thymidine incorporation in response to PDGF); type: cell-based, swine; settings: inhibition of incorporation of 3H-thymidine in response to PDGF (9 ng/ml)
Method: Vascular smooth muscle cells (VSMC) are isolated from swine coronaries obtained from swine hearts (Hatfield Meat Packing, Hatfield, PA) by enzyme dissociation as described by Gunther, et al., in J. Cell. Biol. 92, 289 (1982). Hyaluronidase (0.5 mg/ml) is added to facilitate dispersal. Cells are maintained in Earle's modified minimal essential medium (EMEM) with D-valine substituted for L-valine, supplemented with Hepes (10 mM), fetal bovine serum (FBS) (10%), penicillin (100 U/ml) and streptomycin ( 100 µg/ml).
The VSMC (passage 2) are plated at a density of 3 x 10^4 /cm2 (1x10^4 cells/well of 96 well tray) and after 48 hours of normal growth are arrested by replacement of above media with serum-free media for 48 hours consisting of: EMEM: Hams F12 (1:1), insulin, 5 µg/ml; transferrin, 35 µg/ml; selenite, 5 ng/ml; antibiotics and buffer (as above). The oligomer of the present invention to be tested (.01-10 µM) is added 2 hours prior to addition of porcine platelet derived growth factor (Research and Diagonostics, Minneapolis, MN), or FBS,in fresh serum-free media. Twenty-four hours later the oligomers are again added preceding addition of growth factors by 2 hours. […]
The VSMC are pulsed (5 hours) with ^3H-thymidine (Amersham, Arlington Heights, IL) (1 µCi/well of a 96 well plate; 42 Ci/mmole) added 15-18 hours after the last dose of growth factor. DNA synthesis is determined in NaOH extraction of ethanol/ether fixed cells as reported by Nemecek, et al., PNAS 83, 674 (1986). The cells are washed with phosphate bufferred saline (200 µl/well of 96-well tray. The cells are incubated with trichloroacetic acid (TCA) (10%, 200 ul) for 5 minutes to remove cytoplasmic label. After a rapid wash with cold 10% TCA, cells are fixed with ethanol/ether (2:1, 200 µl/well 5 min) and dried. The labeled DNA is extracted with 0.5 N NaOH (200 µl/well 30 min incubation, room temperature). The extracted DNA is neutralized (0.5 N HCI) and counted by liquid scintillation.
Statistical evaluation is as reported by Bilder, et al., Am. […] IC50 values are calculated by linear regression (RPL of RS1) from % inhibition of a minimum of 3 log fold dilutions of oligomers in the presence of PDGF (9 ng/ml) which give 70-80% of a maximal PDGF response. […] Percent inhibition is calculated by comparing the effect of PDGF alone (vehicle treated cultures + PDGF minus vehicle treated cultures without PDGF) to the effect of oligomers (oligomer + PDGF minus oligomer alone) and divided by the effect of PDGF times 100. i.e., = % inhibition = ((ΔVehicle + PDGF) - (Δoligomer + PDGF)/(Δvehicle + PDGF)) x 100.

SMILES	IC50 ([1]; read-out: IC50 (converted))	APTT ICDCT (normal pooled plasma)	inhibition at 100 µg/mL (vWF Binding to Gp1b)	IC50 [2]	IC50 [1]	IC50 ([1]; unit printed in the cell of the nM column, read-out: IC50 (converted))
O=C(O)CCc1cc(Cc2cc(O)ccc2CCC(=O)O)c(O)cc1CCc1cc(O)c(Cc2cc(O)ccc2CCC(=O)O)cc1CCC(=O)O [Ex 3, 1,2-bis-[2-(2-carboxyethyl)-4-[2-(2-carboxyethyl)-5-hydroxybenzyl]-5-hydroxyphenyl]ethane]	> 1400 nM	700 µg/mL	21%			
O=C(O)COc1cc(Cc2cc(OCc3ccccc3)c(Cc3cc(OCc4ccccc4)c(Cc4cc(O)ccc4OCC(=O)O)cc3OCC(=O)O)cc2OCC(=O)O)c(OCc2ccccc2)cc1CO [Ex 16, 4-benzyloxy-5-[4-[4-[[2-carboxymethyloxy-5-hydroxy]benzyl]-[5-benzyloxy-2-carboxymethyloxy]benzyl]-[5-benzyloxy-2-carboxymethyloxy]benzyl]-2-hydroxymethylphenoxyacetic acid]	330 nM and 327 nM	360 µg/mL				
O=C(O)COc1cc(Cc2cc(O)ccc2OCC(=O)O)c(O)cc1CCc1cc(O)c(Cc2cc(O)ccc2OCC(=O)O)cc1OCC(=O)O [Ex 17, 1 ,2-bis-[[2-carboxymethyloxy-5-hydroxy-4-(5-hydroxy-2-carboxymethyloxy)benzyl]phenyl]ethane]	135 nM and 134 nM	580 µg/mL				
O=C(O)COc1cc(Cc2cc(OCc3ccccc3)c(Cc3cc(OCc4ccccc4)c(Cc4cc(OCc5ccccc5)c(Cc5cc(OCc6ccccc6)c(Cc6cc(O)ccc6OCC(=O)O)cc5OCC(=O)O)cc4OCC(=O)O)cc3OCC(=O)O)cc2OCC(=O)O)c(OCc2ccccc2)cc1CO [Ex 19, 4-benzyloxy-5-[4-[4-[4-[4-[[2-carboxymethyloxy-5-hydroxy]benzyl]-[5-benzyloxy-2-carboxymethyloxy]benzyl]-[5-benzyloxy-2-carboxymethyloxy]benzyl]-[5-benzyloxy-2-carboxymethyloxy]benzyl]-[5-benzyloxy-2-carboxymethyloxy]benzyl]-2-hydroxymethylphenoxyacetic acid]		345 µg/mL		0.3 µM		
O=C(O)COc1cc(Cc2cc(OCc3ccccc3)ccc2OCC(=O)O)c(O)cc1CCc1cc(O)c(Cc2cc(OCc3ccccc3)ccc2OCC(=O)O)cc1OCC(=O)O [Ex 20, 1,2-bis-[[2-carboxymethyloxy-5-hydroxy-4-(5-benzyloxy-2-carboxymethyloxy)benzyl]phenyl]ethane]		555 µg/mL			780 nM and 779 nM	
CCc1cc(OCC(=O)O)cc(Cc2cc(OCC(=O)O)cc(Cc3cc(OCC(=O)O)cc(Cc4cc(OCC(=O)O)ccc4OC)c3OC)c2OC)c1OC [Ex 22, 5-[3-[3-[[5-carboxymethyloxy-2-methoxy]benzyl]-[5-carboxymethyloxy-2-methoxy]benzyl]-[5-carboxymethyloxy-2-methoxy]benzyl]-3-ethyl-4-methoxyphenoxyacetic acid]		>315 µg/mL				> 3e+06 nM
CCc1cc(OCC(=O)O)cc(Cc2cc(OCC(=O)O)cc(Cc3cc(OCC(=O)O)cc(Cc4cc(OCC(=O)O)cc(Cc5cc(OCC(=O)O)cc(Cc6cc(OCC(=O)O)cc(Cc7cc(OCC(=O)O)cc(Cc8cc(OCC(=O)O)ccc8OC)c7OC)c6OC)c5OC)c4OC)c3OC)c2OC)c1OC [Ex 23, 5-[3-[3-[3-[3-[3-[3-[[5-carboxymethyloxy-2-methoxy]benzyl]-[5-carboxymethyloxy-2-methoxy]benzyl]-[5-carboxymethyloxy-2-methoxy]benzyl]-[5-carboxymethyloxy-2-methoxy]benzyl]-[5-carboxymethyloxy-2-methoxy]benzyl]-[5-carboxymethyloxy-2-methoxy]benzyl]-[5-carboxymethyloxy-2-methoxy]benzyl]-3-ethyl-4-methoxyphenoxyacetic acid]		300 µg/mL		0.3 µM		
